Columns and labels:
Wistar rats = experiment: Novel object recognition test, subchronic PCP-induced cognitive impairment; assay type: in vivo, rat; settings: PCP 5 mg/kg twice daily for 7 days IP
Procedure: The total exploration time of two identical objects in the acquisition trial was measured manually and indicated as the mean±SEM (n=10). No statistical difference was found in the total exploration time among the different groups by one-way ANOVA (P=0.340).
(§1) NDI was calculated using the following equation: novel object interaction time/total interaction time×100(%). Data are represented as the mean±SEM (n=10). Significant difference from control group was indicated by ***P<0.001 (Student's t-test). Significant differences from PCP-treated group were indicated by ##P<0.01, #P<0.05 (Dunnett test). Significant difference from PCP-treated group were indicated by ††P<0.01 (Student's t-test).
Exploration time of each object in retention trial was measured manually and presented as the mean±SEM (n=10). Significant differences from familiar object interaction were indicated by ***P<0.001, **P<0.01 (paired t-test).
A novel object recognition test was conducted to investigate the effect of SP-624 on subchronic PCP-induced cognitive impairment in Wistar rats. Clozapine was used as a positive control.

Long-Evans rats = experiment: Novel object recognition test, scopolamine-induced cognitive impairment; assay type: in vivo, rat; settings: scopolamine 0.1 mg/kg SC
Procedure: Total exploration time of two identical objects in the acquisition trial was measured manually and indicated as the mean±SEM (n=8). No statistical difference was found in the total exploration time among the different groups by one-way ANOVA (P=0.115).
as §1, with “(n=8).” for “(n=10).”, “scopolamine-treated vehicle” for “PCP-treated”, “##P<0.01” for “##P<0.01, #P<0.05”, “†††P<0.001” for “††P<0.01”
Exploration time of each object in retention trial was measured manually and presented as the mean±SEM (n=8). Significant differences from familiar object interaction were indicated by **P<0.01, *P<0.05 (paired t-test).
A novel object recognition test (which evaluates visual learning and memory) was conducted to investigate the effect of compound 1 on scopolamine-induced cognitive impairment in Long-Evans rats. Donepezil was used as a positive control. Scopolamine at 0.1 mg/kg SC reduced the novelty discrimination index (NDI) a measure of cognitive function (FIGS. 4-6).

Row | SMILES | NDI compared with sub-chronic vehicle treatment (Wistar rats) | novelty discrimination index (NDI) (Long-Evans rats)
1 | c1ccc(C2(N3CCCCC3)CCCCC2)cc1 [PCP, reference compound] | significantly decreased | –
2 | CN1[C@@H]2C[C@@H](OC(=O)[C@H](CO)c3ccccc3)C[C@H]1[C@@H]1O[C@@H]12 [Scopolamine, reference compound] | – | reduced

Source: patent publication US20260034103A1, “COMPOSITIONS AND METHODS FOR IMPROVING MEMORY AND COGNITION” (priority 2022, published 2026)
